Reference: patent US20240181087A1, “COMPOSITION FOR CONTRAST IMAGING OF CANCER” (ASTELLAS PHARMA INC., priority 2021, published 2024)

Experiments:
Assay type in all cases: in vivo
RenCa cell = experiment: near-infrared fluorescence imaging of lung, lung cancer-bearing mouse (RenCa, tail vein inoculation); conditions: tail vein 120 nmol/kg; after 10 minutes; excised lung
Method: Metastatic spontaneous renal cell carcinoma line from BALB/c mouse, RenCa cell (1×10^6 cells, purchased from CLS Cell Lines Service GmbH, Eppelheim, Germany) was prepared in RPMI-1640 medium (fetal bovine serum free, FUJIFILM Wako Pure Chemical Corporation), the resultant was inoculated in a mouse (BALB/cCrSlc, SPF, female, 7 weeks old) by tail vein administration under anesthesia by subcutaneous administration of ketamine (75 mg/kg) and medetomidine (1 mg/kg), and the resultant mouse was bred for 18 days to cause lung cancer therein. The mouse was anesthetized by subcutaneous administration of ketamine (75 mg/kg) and medetomidine (1 mg/kg), and the compound III (120 nmol/kg weight) was administered through the tail vein. After 10 minutes, the lung was excised to perform near-infrared fluorescence imaging with a near-infrared fluorescence imaging device (pde-neo, manufactured by Hamamatsu Photonics K.K.).

[1] = test system: mouse bladder cancer cell MB49; experiment: near-infrared fluorescence observation of bladder after tail vein administration, MB49 bladder cancer mouse model
Method: Two bladder cancer mouse models (weight: about 20 g), having mouse bladder cancer cell MB49 transplanted in the bladder mucosa, and then grown for 3 weeks or 4 weeks, were used. To the tail vein of each of the mice, 0.2 mL of a saline containing the compound III (concentration of the compound III: 0.075 mg/mL) was administered, and after 1 day, the mouse was subjected to laparotomy under anesthesia by subcutaneous administration of ketamine (75 mg/kg) and medetomidine (1 mg/kg), and near-infrared fluorescence observation was performed with a near-infrared fluorescence imaging device (pde-neo, manufactured by Hamamatsu Photonics K.K., excitation wavelength: 760 nm, detection wavelength: fluorescence of 800 nm or more, the same applies hereinafter) (FIG. 1, right: near-infrared fluorescence image).
As a comparative example, a saline containing the compound III was administered to the tail vein of a normal mouse (weight: about 20 g), and after 1 day, the mouse was subjected to laparotomy under anesthesia by subcutaneous administration of ketamine (75 mg/kg) and medetomidine (1 mg/kg), and near-infrared fluorescence observation was performed with a near-infrared fluorescence imaging device (pde-neo, manufactured by Hamamatsu Photonics K.K.) (FIG. 2).
Two bladder cancer model mice (weight: about 20 g), having mouse bladder cancer cell MB49 transplanted in the bladder mucosa, and then grown for 3 weeks or 4 weeks, were used. To the tail vein of each of the mice, 0.2 mL of a saline containing the compound III (concentration of the compound III: 0.075 mg/mL) was administered. One day after the administration, the mouse was subjected to laparotomy under anesthesia by subcutaneous administration of ketamine (75 mg/kg) and medetomidine (1 mg/kg), and under observation of near-infrared fluorescence with a near-infrared fluorescence imaging device (pde-neo, manufactured by Hamamatsu Photonics K.K.), a cancer tissue site emitting near-infrared fluorescence was taken out for near-infrared fluorescence observation (FIG. 5, right: near-infrared fluorescence image). […]

mouse tumor cell 4T1 = experiment: near-infrared fluorescence imaging after administration into tumor, 4T1 breast cancer model
Excerpt: A syngeneic tumor transplanted mouse model was created as follows referring to “Gan-Shikkan Model no Sakusei to Riyo (Cancer-Creation and Use of Disease Model)” (Takuro Nakamura, LIC, 2012). • (Breast Cancer) A tumor model was created by breeding a normal Balb/c mouse (weight: about 20 g to 30 g) for 14 days with mouse tumor cell 4T1 subcutaneously administered thereto. • (Colorectal Cancer) A tumor model was created by breeding a normal Balb/c mouse (weight: about 20 g to 30 g) for 14 days with CT26 (colorectal cancer cell) subcutaneously administered thereto. • (Skin Cancer) A tumor model was created by breeding a C57BL/6 mouse (weight: about 15 g to 20 g) for 14 days with B16F1 (skin cancer cell) subcutaneously administered thereto.
Subsequently, to the tumor of each of the model mice, 0.02 to 0.05 mL of a saline containing the compound III or ICG (concentration of the compound III or ICG: 1 mg/mL) was administered, and fluorescence imaging was performed transdermally with a near-infrared fluorescence camera (Fluobeam, manufactured by Fluoptics, http://www.solve-net.com/info/wp-content/uploads/downloads/2013/12/Fluobeam.pdf) (excitation wavelength: 780 nm, detection wavelength: 800 nm or more).

COC1=C(/C=C/C2=[N+](CCC(=O)NCCCO[C@H]3[C@H]4O[C@H]5[C@H](O)[C@@H](O)[C@@H](O[C@H]6[C@H](O)[C@@H](O)[C@@H](O[C@H]7[C@H](O)[C@@H](O)[C@@H](O[C@H]8[C@H](O)[C@@H](O)[C@@H](O[C@H]9[C@H](O)[C@@H](O)[C@@H](O[C@H]%10[C@H](O)[C@@H](O)[C@@H](O[C@@H]([C@@H]3O)[C@@H](CO)O4)O[C@@H]%10CO)O[C@@H]9CO)O[C@@H]8CO)O[C@@H]7CO)O[C@@H]6CO)O[C@@H]5CO)c3ccc4ccccc4c3C2(C)C)CCC/C1=C\C=C1\N(CCC(=O)NCCCO[C@H]2[C@H]3O[C@H]4[C@H](O)[C@@H](O)[C@@H](O[C@H]5[C@H](O)[C@@H](O)[C@@H](O[C@H]6[C@H](O)[C@@H](O)[C@@H](O[C@H]7[C@H](O)[C@@H](O)[C@@H](O[C@H]8[C@H](O)[C@@H](O)[C@@H](O[C@H]9[C@H](O)[C@@H](O)[C@@H](O[C@@H]([C@@H]2O)[C@@H](CO)O3)O[C@@H]9CO)O[C@@H]8CO)O[C@@H]7CO)O[C@@H]6CO)O[C@@H]5CO)O[C@@H]4CO)c2ccc3ccccc3c2C1(C)C.[Cl-] [compound III, 3-(3-{[3-(cyclomaltoheptaose-21-O-yl)propyl]amino}-3-oxopropyl)-2-{(1E)-2-[(3E)-3-{(2E)-2-[3-(3-{[3-(cyclomaltoheptaose-21-O-yl)propyl]amino}-3-oxopropyl)-1,1-dimethyl-1,3-dihydro-2H-benzo[e]indol-2-ylidene]ethylidene}-2-methoxycyclohexa-1-en-1-yl]ethene-1-yl}-1,1-dimethyl-1H-benzo[e]indol-3-ium chloride]
intensity of near-infrared fluorescence in lung cancer site (RenCa cell): low | excision of tumor tissue with fluorescence emitted from the cancer tissue used as a guide ([1]; MB49 bladder cancer mouse model, 0.2 mL saline 0.075 mg/mL, 1 day after administration): could be appropriately excised | near-infrared fluorescence in cancer tissue of the bladder ([1]; MB49 bladder cancer mouse model, 0.2 mL saline 0.075 mg/mL, after 1 day, laparotomy): specifically observed | near-infrared fluorescence of normal tissue (bladder) ([1]; normal mouse, after 1 day, laparotomy): did not emit near-infrared fluorescence | retention in tumor (fluorescence imaging) (mouse tumor cell 4T1; 4T1 breast cancer model, 0.02 to 0.05 mL of 1 mg/mL saline, transdermal imaging): retained in the tumor | drawing of tumor outline / exudation to surrounding tissues (mouse tumor cell 4T1; 4T1 tumor, 1 mg/mL saline, fluorescence imaging, incl. during tumor excision operation): did not exude to surrounding tissues but the outline of the tumor was drawn
